In assay [1] the target is cGMP-dependent protein kinase 1 (Homo sapiens) (UniProt Q13976). Put plainly: Binding affinity to wild-type human partial length PRKG1 (L339 to F686 residues) expressed in bacterial expression system assessed as residual binding level at 10 uM by Kinomescan method relative to control.
Assay [2] concerns the target Atypical kinase COQ8B, mitochondrial (Homo sapiens) (UniProt Q96D53). Briefly: Binding affinity to wild-type human full length ADCK4 (M1 to S544 residues) expressed in bacterial expression system assessed as residual binding level at 10 uM by Kinomescan method relative to control.
Assay [3] has as its target Ribosomal protein S6 kinase alpha-4 (Homo sapiens) (UniProt O75676). Briefly: Binding affinity to wild-type human partial length N-terminal RPS6KA4 kinase domain 1 expressed in bacterial expression system assessed as residual binding level at 10 uM by Kinomescan method relative to control.
For assay [4], the target named is Serine/threonine-protein kinase LATS1 (Homo sapiens) (UniProt O95835). Put plainly: Binding affinity to wild-type human partial length LATS1 (Q678 to V1130 residues) expressed in bacterial expression system assessed as residual binding level at 10 uM by Kinomescan method relative to control.
The target in assay [5] is Ribosomal protein S6 kinase alpha-5 (Homo sapiens) (UniProt O75582). Briefly: Binding affinity to wild-type human partial length C-terminal RPS6KA5 kinase domain 2 (V390 to T718 residues) expressed in bacterial expression system assessed as residual binding level at 10 uM by Kinomescan method relative to control.
In assay [6] the target is Tyrosine-protein kinase Blk (Homo sapiens) (UniProt P51451). Briefly: Binding affinity to wild-type human partial length BLK (G211 to L503 residues) expressed in bacterial expression system assessed as residual binding level at 10 uM by Kinomescan method relative to control.
Assay [7] deals with Serine/threonine-protein kinase MARK1 (Homo sapiens) (UniProt Q9P0L2). Put plainly: Binding affinity to wild-type human partial length MARK1 (Q30 to T341 residues) expressed in bacterial expression system assessed as residual binding level at 10 uM by Kinomescan method relative to control.
Sequence of Serine/threonine-protein kinase MARK1 (Homo sapiens) (Q9P0L2 whole entry, looked up, the tested form may be a part): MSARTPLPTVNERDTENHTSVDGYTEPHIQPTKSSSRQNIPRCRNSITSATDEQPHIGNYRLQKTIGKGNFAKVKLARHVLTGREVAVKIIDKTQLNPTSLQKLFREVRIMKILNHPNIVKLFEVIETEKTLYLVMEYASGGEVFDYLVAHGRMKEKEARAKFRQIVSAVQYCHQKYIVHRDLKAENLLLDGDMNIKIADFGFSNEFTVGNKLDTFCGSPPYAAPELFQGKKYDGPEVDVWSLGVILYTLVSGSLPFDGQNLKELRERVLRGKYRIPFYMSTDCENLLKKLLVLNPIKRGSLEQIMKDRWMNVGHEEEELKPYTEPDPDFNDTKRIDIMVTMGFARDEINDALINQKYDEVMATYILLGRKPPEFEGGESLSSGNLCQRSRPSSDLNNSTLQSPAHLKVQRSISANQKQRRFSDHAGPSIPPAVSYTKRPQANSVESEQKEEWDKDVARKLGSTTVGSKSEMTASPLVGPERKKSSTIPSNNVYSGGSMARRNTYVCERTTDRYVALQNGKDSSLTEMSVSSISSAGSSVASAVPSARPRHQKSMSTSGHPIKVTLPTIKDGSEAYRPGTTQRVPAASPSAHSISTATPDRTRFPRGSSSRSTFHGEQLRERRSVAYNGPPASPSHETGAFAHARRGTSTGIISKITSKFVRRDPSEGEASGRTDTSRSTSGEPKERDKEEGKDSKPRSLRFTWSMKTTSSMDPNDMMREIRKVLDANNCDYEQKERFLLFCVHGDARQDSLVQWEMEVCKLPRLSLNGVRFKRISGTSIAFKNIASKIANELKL
In assay [8] the target is Angiopoietin-1 receptor (Homo sapiens) (UniProt Q02763). Put plainly: Binding affinity to wild-type human partial length TIE2 (N804 to T1112 residues) expressed in bacterial expression system assessed as residual binding level at 10 uM by Kinomescan method relative to control.
For assay [9], the target named is Maternal embryonic leucine zipper kinase (Homo sapiens) (UniProt Q14680). Put plainly: Binding affinity to wild-type human full length MELK (M1 to V651 residues) expressed in bacterial expression system assessed as residual binding level at 10 uM by Kinomescan method relative to control.
Sequence of Maternal embryonic leucine zipper kinase (Homo sapiens) (Q14680 whole entry, looked up, the tested form may be a part): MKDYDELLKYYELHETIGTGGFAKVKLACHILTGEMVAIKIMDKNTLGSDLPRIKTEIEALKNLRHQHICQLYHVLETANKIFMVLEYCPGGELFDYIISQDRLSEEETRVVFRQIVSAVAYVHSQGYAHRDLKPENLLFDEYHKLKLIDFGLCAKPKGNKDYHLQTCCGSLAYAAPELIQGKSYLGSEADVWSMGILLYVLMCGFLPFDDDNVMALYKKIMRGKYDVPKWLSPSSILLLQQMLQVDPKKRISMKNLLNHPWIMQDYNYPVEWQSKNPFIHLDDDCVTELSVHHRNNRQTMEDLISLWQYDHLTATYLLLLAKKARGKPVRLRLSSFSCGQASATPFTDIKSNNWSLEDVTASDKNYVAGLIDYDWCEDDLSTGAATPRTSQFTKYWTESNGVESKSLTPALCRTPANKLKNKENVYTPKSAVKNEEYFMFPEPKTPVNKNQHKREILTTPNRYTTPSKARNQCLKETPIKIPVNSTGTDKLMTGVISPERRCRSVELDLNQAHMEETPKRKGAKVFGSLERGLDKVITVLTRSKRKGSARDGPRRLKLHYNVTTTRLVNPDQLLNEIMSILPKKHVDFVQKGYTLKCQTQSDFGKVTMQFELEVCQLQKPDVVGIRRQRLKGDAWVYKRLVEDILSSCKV
Assay [10] relates to Tyrosine-protein kinase ABL1 (Homo sapiens), P00519 [H396P]. Put plainly: Binding affinity to human non-phosphorylated ABL1 H396P mutant (S229 to K512 residues) expressed in mammalian expression system assessed as residual binding level at 10 uM by Kinomescan method relative to control.
For assay [11], the target named is Calcium/calmodulin-dependent protein kinase type 1D (Homo sapiens) (UniProt Q8IU85). Put plainly: Binding affinity to wild-type human partial length CAMK1D (M1 to K299 residues) expressed in bacterial expression system assessed as residual binding level at 10 uM by Kinomescan method relative to control.
Sequence of Calcium/calmodulin-dependent protein kinase type 1D (Homo sapiens) (Q8IU85 whole entry, looked up, the tested form may be a part): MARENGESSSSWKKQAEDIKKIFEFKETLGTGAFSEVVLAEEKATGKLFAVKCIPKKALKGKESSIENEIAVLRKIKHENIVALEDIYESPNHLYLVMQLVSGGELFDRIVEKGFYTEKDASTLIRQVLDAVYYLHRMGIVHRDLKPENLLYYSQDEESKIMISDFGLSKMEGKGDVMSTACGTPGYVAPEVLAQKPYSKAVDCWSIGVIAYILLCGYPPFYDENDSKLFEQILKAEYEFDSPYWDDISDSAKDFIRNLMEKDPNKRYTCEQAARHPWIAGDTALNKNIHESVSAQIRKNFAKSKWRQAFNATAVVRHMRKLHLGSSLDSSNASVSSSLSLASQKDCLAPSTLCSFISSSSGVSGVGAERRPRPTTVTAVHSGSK
Assay [12] addresses Beta-adrenergic receptor kinase 1 (Homo sapiens) (UniProt P25098). Briefly: Binding affinity to wild-type human full length GRK2 (M1 to L689 residues) expressed in mammalian expression system assessed as residual binding level at 10 uM by Kinomescan method relative to control.
In assay [13] the target is cAMP-dependent protein kinase catalytic subunit beta (Homo sapiens) (UniProt P22694). Put plainly: Binding affinity to wild-type human full length PKAC-beta (M1 to F351 residues) expressed in bacterial expression system assessed as residual binding level at 10 uM by Kinomescan method relative to control.
Assay [14] addresses G protein-coupled receptor kinase 4 (Homo sapiens) (UniProt P32298). Briefly: Binding affinity to wild-type human full length GRK4 (M1 to C578 residues) expressed in bacterial expression system assessed as residual binding level at 10 uM by Kinomescan method relative to control.
Assay [15] concerns the target Serine/threonine-protein kinase TAO2 (Homo sapiens) (UniProt Q9UL54). Briefly: Binding affinity to wild-type human partial length TAOK2 (M1 to A320 residues) expressed in mammalian expression system assessed as residual binding level at 10 uM by Kinomescan method relative to control.
Assay [16] concerns the target Mitogen-activated protein kinase kinase kinase 19 (Homo sapiens) (UniProt Q56UN5). Briefly: Binding affinity to wild-type human partial length YSK4 (T1019 to H1328 residues) expressed in mammalian expression system assessed as residual binding level at 10 uM by Kinomescan method relative to control.
Assay [17] has as its target Cyclin-dependent kinase-like 2 (Homo sapiens) (UniProt Q92772). Briefly: Binding affinity to wild-type human partial length CDKL2 (M1 to D327 residues) expressed in bacterial expression system assessed as residual binding level at 10 uM by Kinomescan method relative to control.
The target in assay [18] is Ribosomal protein S6 kinase alpha-2 (Homo sapiens) (UniProt Q15349). Put plainly: Binding affinity to wild-type human partial length N-terminal RSK3 kinase domain 1 (M1 to Q385 residues) expressed in bacterial expression system assessed as residual binding level at 10 uM by Kinomescan method relative to control.
Sequence of Ribosomal protein S6 kinase alpha-2 (Homo sapiens) (Q15349 whole entry, the tested form may be a part): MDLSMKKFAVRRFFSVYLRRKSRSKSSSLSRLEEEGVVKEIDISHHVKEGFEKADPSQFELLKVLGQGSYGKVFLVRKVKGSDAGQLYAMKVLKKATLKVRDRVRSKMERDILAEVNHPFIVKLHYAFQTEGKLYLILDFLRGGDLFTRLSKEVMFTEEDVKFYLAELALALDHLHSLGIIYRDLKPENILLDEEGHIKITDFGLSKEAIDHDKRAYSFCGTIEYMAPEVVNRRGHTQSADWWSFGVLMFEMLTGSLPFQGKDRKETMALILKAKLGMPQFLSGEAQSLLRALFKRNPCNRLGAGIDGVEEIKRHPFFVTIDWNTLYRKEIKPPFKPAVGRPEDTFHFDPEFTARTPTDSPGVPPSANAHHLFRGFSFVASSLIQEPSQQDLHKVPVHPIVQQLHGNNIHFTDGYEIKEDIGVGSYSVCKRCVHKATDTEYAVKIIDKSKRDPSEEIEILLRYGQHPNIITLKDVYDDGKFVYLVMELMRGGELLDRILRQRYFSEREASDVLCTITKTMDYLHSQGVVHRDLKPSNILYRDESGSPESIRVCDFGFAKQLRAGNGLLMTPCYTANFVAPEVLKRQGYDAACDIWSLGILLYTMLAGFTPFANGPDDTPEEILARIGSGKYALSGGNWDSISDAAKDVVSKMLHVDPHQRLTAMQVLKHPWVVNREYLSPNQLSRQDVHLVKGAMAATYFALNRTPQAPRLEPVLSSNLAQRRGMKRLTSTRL
Assay [19] has as its target Calcium/calmodulin-dependent protein kinase type II subunit gamma (Homo sapiens) (UniProt Q13555). Briefly: Binding affinity to wild-type human partial length CAMK2G (R9 to A303 residues) expressed in bacterial expression system assessed as residual binding level at 10 uM by Kinomescan method relative to control.
The target of assay [20] is Homeodomain-interacting protein kinase 4 (Homo sapiens) (UniProt Q8NE63). Briefly: Binding affinity to wild-type human partial length HIPK4 (M1 to V384 residues) expressed in bacterial expression system assessed as residual binding level at 10 uM by Kinomescan method relative to control.

Sequence of G protein-coupled receptor kinase 4 (Homo sapiens) (P32298 whole entry, looked up, the tested form may be a part): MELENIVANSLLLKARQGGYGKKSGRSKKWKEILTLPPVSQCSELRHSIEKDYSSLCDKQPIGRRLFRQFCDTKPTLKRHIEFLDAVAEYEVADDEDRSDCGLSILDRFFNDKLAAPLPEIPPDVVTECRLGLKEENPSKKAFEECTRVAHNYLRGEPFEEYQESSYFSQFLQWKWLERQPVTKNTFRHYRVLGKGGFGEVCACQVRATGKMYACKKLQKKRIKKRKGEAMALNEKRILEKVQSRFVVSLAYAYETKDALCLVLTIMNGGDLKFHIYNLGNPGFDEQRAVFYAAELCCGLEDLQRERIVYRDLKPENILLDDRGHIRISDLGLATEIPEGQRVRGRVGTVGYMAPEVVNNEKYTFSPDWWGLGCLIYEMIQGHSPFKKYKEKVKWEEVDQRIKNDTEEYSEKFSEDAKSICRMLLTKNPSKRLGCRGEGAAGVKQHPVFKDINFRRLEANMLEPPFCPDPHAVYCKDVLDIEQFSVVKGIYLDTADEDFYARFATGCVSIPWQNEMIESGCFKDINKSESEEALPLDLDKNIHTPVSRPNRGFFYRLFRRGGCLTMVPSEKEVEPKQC
Sequence of Atypical kinase COQ8B, mitochondrial (Homo sapiens) (Q96D53 whole entry, the tested form may be a part): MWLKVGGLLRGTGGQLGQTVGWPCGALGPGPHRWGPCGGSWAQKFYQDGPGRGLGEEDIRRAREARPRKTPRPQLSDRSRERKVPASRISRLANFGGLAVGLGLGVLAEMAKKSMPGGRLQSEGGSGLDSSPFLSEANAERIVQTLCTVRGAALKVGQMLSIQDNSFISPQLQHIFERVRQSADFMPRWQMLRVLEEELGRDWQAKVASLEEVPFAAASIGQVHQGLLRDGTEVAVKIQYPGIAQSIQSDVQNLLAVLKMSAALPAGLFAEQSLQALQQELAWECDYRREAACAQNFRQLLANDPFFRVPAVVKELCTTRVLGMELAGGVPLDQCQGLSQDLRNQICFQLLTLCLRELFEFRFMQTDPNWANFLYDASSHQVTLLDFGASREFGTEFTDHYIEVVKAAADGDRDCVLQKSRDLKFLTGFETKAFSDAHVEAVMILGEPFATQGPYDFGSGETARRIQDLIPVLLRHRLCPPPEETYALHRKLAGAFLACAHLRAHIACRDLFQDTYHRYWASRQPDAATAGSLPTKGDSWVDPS
Sequence of Cyclin-dependent kinase-like 2 (Homo sapiens) (Q92772 whole entry, the tested form may be a part): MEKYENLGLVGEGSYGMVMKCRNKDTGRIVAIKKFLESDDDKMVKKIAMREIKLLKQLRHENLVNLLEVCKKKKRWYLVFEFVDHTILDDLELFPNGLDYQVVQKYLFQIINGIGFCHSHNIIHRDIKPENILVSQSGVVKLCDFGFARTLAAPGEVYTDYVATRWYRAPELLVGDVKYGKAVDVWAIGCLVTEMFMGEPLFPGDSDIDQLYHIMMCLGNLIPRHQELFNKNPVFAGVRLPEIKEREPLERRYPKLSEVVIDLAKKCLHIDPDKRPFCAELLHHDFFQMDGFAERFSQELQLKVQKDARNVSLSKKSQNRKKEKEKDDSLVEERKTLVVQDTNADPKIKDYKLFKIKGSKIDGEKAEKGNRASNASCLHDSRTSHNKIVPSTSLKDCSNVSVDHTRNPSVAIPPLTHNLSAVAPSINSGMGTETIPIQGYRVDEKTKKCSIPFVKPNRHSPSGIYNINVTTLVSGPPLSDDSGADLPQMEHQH
Sequence of cGMP-dependent protein kinase 1 (Homo sapiens) (Q13976 whole entry, the tested form may be a part): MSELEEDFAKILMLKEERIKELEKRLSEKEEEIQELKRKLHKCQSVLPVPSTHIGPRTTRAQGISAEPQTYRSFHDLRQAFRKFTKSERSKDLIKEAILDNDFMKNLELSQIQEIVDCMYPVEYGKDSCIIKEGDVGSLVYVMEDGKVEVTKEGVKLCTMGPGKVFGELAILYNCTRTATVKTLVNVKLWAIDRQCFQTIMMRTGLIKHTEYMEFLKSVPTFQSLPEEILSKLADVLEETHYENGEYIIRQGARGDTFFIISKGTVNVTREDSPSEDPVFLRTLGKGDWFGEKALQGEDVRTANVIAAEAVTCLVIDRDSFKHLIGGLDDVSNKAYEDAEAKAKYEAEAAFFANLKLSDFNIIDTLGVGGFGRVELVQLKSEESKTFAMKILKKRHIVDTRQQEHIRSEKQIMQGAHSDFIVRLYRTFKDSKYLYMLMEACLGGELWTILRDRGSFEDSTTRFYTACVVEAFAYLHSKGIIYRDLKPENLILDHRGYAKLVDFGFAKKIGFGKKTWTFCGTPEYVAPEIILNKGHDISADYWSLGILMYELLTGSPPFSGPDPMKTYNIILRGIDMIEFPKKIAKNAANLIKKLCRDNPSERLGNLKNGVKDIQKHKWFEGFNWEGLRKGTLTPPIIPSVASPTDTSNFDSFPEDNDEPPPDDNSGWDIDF

`O=C(Nc1cc(-c2cn(CCNc3c4c(nc5ccccc35)CCCC4)nn2)ccn1)Nc1cccc2c1C1CCCCN1C2=O` (racemic): the Activity in assay [1] worked out at 92%; in assay [2], 77%; in assay [3], 22%; in [4], 90%; in assay [5], 96%; in assay [6], 44%. For the same compound, the Activity in assay [7] is 50%; in assay [8] it was 77%; in assay [9], 14%; in assay [10] it was 1.8%; in [11] it was 48%; in assay [12], 100%. The Activity in [13] was 99%; in assay [14], 7%; in assay [15] it was 56%; in assay [16], 8.5%; in assay [17], 0.1%; in [18], 7.1%. Also, the Activity amounted to 64% in assay [19] and 84% in assay [20].

Values taken from ChEMBL document CHEMBL4390652, “Design, biological evaluation and X-ray crystallography of nanomolar multifunctional ligands targeting simultaneously acetylcholinesterase and glycogen synthase kinase-3” (Eur J Med Chem, 2019).
